{"source": "paper PMC6934184", "about": "“Selective DNA-PKcs inhibition extends the therapeutic index of localized radiotherapy and chemotherapy” (The Journal of Clinical Investigation, 2019)", "target": "T1, SRPK1 (Homo sapiens, UniProt Q96SB4)", "T1 construct": "purchased Thermo Fisher Scientific (Life Technologies) SelectScreen", "T1 sequence (Q96SB4 whole entry)": "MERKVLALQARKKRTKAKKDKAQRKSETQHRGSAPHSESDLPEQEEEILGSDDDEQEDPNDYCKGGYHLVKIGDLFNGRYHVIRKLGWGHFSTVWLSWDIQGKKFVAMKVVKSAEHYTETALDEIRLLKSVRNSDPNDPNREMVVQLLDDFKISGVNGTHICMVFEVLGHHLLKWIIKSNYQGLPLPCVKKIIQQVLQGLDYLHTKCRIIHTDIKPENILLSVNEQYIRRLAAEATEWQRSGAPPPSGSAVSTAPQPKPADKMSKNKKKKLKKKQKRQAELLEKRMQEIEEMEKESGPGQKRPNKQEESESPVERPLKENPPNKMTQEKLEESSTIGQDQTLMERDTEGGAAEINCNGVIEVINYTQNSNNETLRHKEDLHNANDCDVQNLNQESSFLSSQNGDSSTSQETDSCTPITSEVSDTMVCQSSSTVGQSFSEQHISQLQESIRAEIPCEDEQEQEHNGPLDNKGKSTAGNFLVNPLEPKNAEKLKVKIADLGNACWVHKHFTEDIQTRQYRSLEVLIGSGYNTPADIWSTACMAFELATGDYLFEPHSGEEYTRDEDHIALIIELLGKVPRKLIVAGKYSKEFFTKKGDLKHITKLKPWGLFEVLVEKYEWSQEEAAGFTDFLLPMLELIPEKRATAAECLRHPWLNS", "assay": "SelectScreen Z'LYTE", "type": "biochemical", "in_short": "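SelectScreen broad panel; activity (Z'LYTE, Adapta) plus binding formats. ATP: Km app for CSF1R Z'LYTE; 10 for CAMK1 Adapta. Readout = % per kinase.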", "data": [{"molecule": "CN(C(=O)CN1CCOCC1)c1ccc2sc3c(-c4cccc5c(=O)cc(N6CC7CCC(C6)O7)oc45)cccc3c2c1", "note": "[NU5455]", "values": [{"measurement": "inhibition at 1 µM", "value": -1.1, "unit": "%"}]}]}
